According to US20220000941A1, “MINERAL ELEMENTS COMPRISING HAFNIA ALVEI COMPOSITIONS” (TARGEDYS, priority 2019, published 2022):

Key:
[1] = system: Hafnia alvei 4597; experiment: Turbidity of Hafnia alvei culture media by optical densitometry (OD at 640 nm); format: cell-based; details: mineral source in LB medium, monitored during 48 hours
Description: The concentration of the minerals were based on their estimated concentration in […] (typical glass of water). However, in view of observing the Hafnia alvei strain development, the zinc and chrome sources were solubilized in a Luria Browth medium (LB). The composition of LB is as follows: Tryptone 10 g/L, yeast extract 5 g/L (Biokar Diagnostic®) and NaCl 0.5 g/L (Fluka®).
Hafnia alvei 4597 was incubated with Test medial-6 of example 1 and the turbidity of the culture media was monitored during 48 hours by means of optical densitometry (OD at 640 nm).
(§1) The development of Hafnia alvei in this new medium was monitored by optical densitometry and flow cytometry. LB medium with no added zinc or chrome was used as a control.

[2] = system: Hafnia alvei 4597; experiment: Flow cytometry of cell integrity (propidium iodide and Syto 24), intact cells; format: cell-based; details: zinc comprising media, flow cytometry at 24 h
Excerpt: Samples of the culture media 1-6 were further assessed for the cell integrity by means of flow cytometry using as markers propidium iodide and Syto® 24. The flow cytometry measured the number of intact cells opposed to the population of cells whose cellular membrane integrity had been compromised.
as §1

O=C([O-])c1ccccn1.O=C([O-])c1ccccn1.O=C([O-])c1ccccn1.[Cr+3] [Chromium picolinate, chromium (3+); pyridine-2-carboxylate]
turbidity of the culture medium (OD at 640 nm) compared to control (LB) medium [1]: same turbidity as the control

NCC(=O)[O-].NCC(=O)[O-].[Zn+2] [Zinc bisglycinate, zinc; 2-aminoacetate]
development inhibition compared to the control medium [2]: no significant development inhibition
